Source: patent US5487990A (The General Hospital Corporation, priority 1992, dated 1996)
Several values for one entry are separate records, joined by “and”; a condition that tells them apart may be missing. Equal entries are not always repeated. Entries after “also recorded” stand apart in the source; their conditions may differ. Where two headings read alike, the source gives them in different places. One block for each compound: values may come before it.

Tests used:
[1] = target: T1, Acetyl-CoA Hydrolase from S. cerevisiae (Saccharomyces cerevisiae, UniProt P32316); assay: biochemical; type: biochemical; conditions: for remaining activity at 10000 µM / remaining activity at 500 µM / remaining activity at 5000 µM / remaining activity at 1000 µM: read-out: Enzyme Activity (%)
T1 sequence (P32316 1-526): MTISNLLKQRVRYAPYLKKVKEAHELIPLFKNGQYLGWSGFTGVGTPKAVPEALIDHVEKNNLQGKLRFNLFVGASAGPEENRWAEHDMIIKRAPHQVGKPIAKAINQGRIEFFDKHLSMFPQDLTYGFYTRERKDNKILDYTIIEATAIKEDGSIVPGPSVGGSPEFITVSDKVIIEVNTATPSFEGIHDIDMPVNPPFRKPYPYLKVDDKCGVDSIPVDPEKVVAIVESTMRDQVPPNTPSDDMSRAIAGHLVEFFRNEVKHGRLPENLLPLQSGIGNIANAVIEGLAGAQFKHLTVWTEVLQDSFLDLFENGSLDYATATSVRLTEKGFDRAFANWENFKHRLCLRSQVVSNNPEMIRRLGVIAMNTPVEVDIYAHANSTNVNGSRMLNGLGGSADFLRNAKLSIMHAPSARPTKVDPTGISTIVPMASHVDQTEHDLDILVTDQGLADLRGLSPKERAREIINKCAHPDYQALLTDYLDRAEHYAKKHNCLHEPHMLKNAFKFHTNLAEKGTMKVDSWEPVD

[2] = target: T2, soluble cytosolic acetyl-CoA hydrolase found in rat liver (Rattus norvegicus, UniProt Q99NB7); conditions: rat liver cytoplasmic, cold-labile enzyme; cited from earlier work
T2 construct: host or cells: rat liver cytoplasm (Prass et al. 1980; Soling et al. 1985)

[3] = target: T1, Acetyl-CoA Hydrolase from S. cerevisiae; assay: biochemical; conditions: for remaining activity at 100 µM / remaining activity at 1000 µM / remaining activity at 10000 µM / remaining activity at 5000 µM: pH 7.4, read-out: Enzyme Activity (%); for Enzyme Activity (%): 100 mM potassium phosphate, pH 7.4, None = 100
[4] = test system: mitochondrial acetyl-CoA hydrolase; conditions: cited from earlier work
[5] = target: T1, Acetyl-CoA Hydrolase from S. cerevisiae; assay: Substrate specificity, colorimetric assay (DNTB, A412); type: biochemical; conditions: read-out: Relative Activity (%)
[6] = target: Human ACTH (1-24) (human) (UniProt P01189)

T2 sequence (Q99NB7 whole entry): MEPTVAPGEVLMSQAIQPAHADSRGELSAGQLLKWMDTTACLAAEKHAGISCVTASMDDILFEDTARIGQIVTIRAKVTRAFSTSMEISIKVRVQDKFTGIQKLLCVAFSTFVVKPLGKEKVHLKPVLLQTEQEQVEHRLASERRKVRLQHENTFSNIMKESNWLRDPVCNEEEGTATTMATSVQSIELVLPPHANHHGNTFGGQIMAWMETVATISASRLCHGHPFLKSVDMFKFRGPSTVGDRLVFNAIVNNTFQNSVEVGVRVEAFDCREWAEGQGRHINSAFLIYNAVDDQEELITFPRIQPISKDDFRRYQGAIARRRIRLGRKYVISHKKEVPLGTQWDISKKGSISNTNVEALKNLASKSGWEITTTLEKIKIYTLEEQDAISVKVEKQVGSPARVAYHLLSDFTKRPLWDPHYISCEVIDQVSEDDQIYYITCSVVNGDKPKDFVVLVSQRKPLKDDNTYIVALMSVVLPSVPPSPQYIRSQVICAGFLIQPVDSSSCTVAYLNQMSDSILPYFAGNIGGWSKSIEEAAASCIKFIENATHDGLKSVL

Compound: O[C@@H](CS)[C@@H](O)CS (relative stereo) [DTT]
inactivation by chemical modification (in words) [1]: did not affect enzyme activity
remaining activity at 10000 µM ([1]; 0.25 h): 104%

Compound: OCCS [2-mercaptoethanol]
inactivation by chemical modification (in words) [1]: did not affect enzyme activity
remaining activity at 10000 µM ([1]; 0.25 h): 101%

Compound: Nc1ncnc2c1ncn2[C@@H]1O[C@H](COP(=O)(O)OP(=O)(O)O)[C@@H](O)[C@H]1O [ADP]
effect on enzyme (in words) [2]: inhibited
effect on yeast enzyme activity (in words) [3]: not affected
remaining activity at 100 µM [3]: 98%
remaining activity at 1000 µM [3]: 94%
remaining activity at 10000 µM [3]: 91%
effect on enzyme (in words) [4]: not inhibited; also recorded: not affected

Compound: Nc1ncnc2c1ncn2[C@@H]1O[C@H](COP(=O)(O)O)[C@@H](O)[C@H]1O [AMP]
remaining activity at 100 µM [3]: 96%
remaining activity at 1000 µM [3]: 89%
remaining activity at 10000 µM [3]: 81%

Compound: Nc1ncnc2c1ncn2[C@@H]1O[C@H](COP(=O)(O)OP(=O)(O)OP(=O)(O)O)[C@@H](O)[C@H]1O [ATP]
effect on yeast enzyme activity (in words) [3]: not affected
remaining activity at 100 µM [3]: 101%
remaining activity at 1000 µM [3]: 99%
remaining activity at 10000 µM [3]: 96%
effect on enzyme (in words) [4]: not activated; also recorded: not affected

Compound: CC(=O)CC(=O)SCCNC(=O)CCNC(=O)[C@H](O)C(C)(C)COP(=O)(O)OP(=O)(O)OC[C@H]1O[C@@H](n2cnc3c(N)ncnc32)[C@H](O)[C@@H]1OP(=O)(O)O [Acetoacetyl-CoA]
remaining activity at 100 µM [3]: 98%
remaining activity at 1000 µM [3]: 92%
remaining activity at 5000 µM [3]: 90%
activity at 250 µM [5]: 5%

Compound: CCCC(=O)SCCNC(=O)CCNC(=O)[C@H](O)C(C)(C)COP(=O)(O)OP(=O)(O)OC[C@H]1O[C@@H](n2cnc3c(N)ncnc32)[C@H](O)[C@@H]1OP(=O)(O)O [Butyryl-CoA]
remaining activity at 100 µM [3]: 95%
remaining activity at 1000 µM [3]: 86%
remaining activity at 5000 µM [3]: 62%
activity at 250 µM [5]: 4%

Compound: [Ca+2].[Cl-].[Cl-] [CaCl2]
Enzyme Activity (%) ([3]; addition 1 mM): 97%
Enzyme Activity (%) ([3]; addition 10 mM): 84%

Compound: [Cl][Cd][Cl] [CdCl2]
Enzyme Activity (%) ([3]; addition 1 mM): 91%
Enzyme Activity (%) ([3]; addition 10 mM): 48%

Compound: CC(C)(COP(=O)(O)OP(=O)(O)OC[C@H]1O[C@@H](n2cnc3c(N)ncnc32)[C@H](O)[C@@H]1OP(=O)(O)O)[C@@H](O)C(=O)NCCC(=O)NCCS [CoASH, coenzyme A]
effect on enzyme (in words) [2]: inhibited; also recorded: strong product inhibitor
effect on yeast enzyme activity (in words) [3]: only weakly inhibited
inhibition at 25 µM ([3]; read-out: inhibition of hydrolysis of [1-14C] acetyl-CoA): < 30%
effect on enzyme (in words) [4]: only weakly inhibited; also recorded: weak inhibitor

Compound: [Cl-].[Cl-].[Co+2] [CoCl2]
Enzyme Activity (%) ([3]; addition 1 mM): 86%
Enzyme Activity (%) ([3]; addition 10 mM): 51%

Compound: O=S(=O)([O-])[O-].[Cu+2] [CuSO4]
Enzyme Activity (%) ([3]; addition 1 mM): 94%
Enzyme Activity (%) ([3]; addition 10 mM): 89%

Compound: CCOC(=O)OC(=O)OCC [DEPC, diethyl pyrocarbonate]
inactivation by chemical modification (in words) [1]: nearly complete inactivation; also recorded: inactivated
remaining activity at 500 µM ([1]; 0.25 h): 19%
remaining activity at 5000 µM ([1]; 0.25 h): 3%

Compound: O=S(=O)([O-])[O-].[Fe+2] [FeSO4]
Enzyme Activity (%) ([3]; addition 1 mM): 98%
Enzyme Activity (%) ([3]; addition 10 mM): 88%

Compound: Nc1nc2c(ncn2[C@@H]2O[C@H](COP(=O)(O)OP(=O)(O)O)[C@@H](O)[C@H]2O)c(=O)[nH]1 [GDP]
effect on enzyme (in words) [2]: inhibited
effect on enzyme (in words) [4]: not inhibited

Compound: C[S+](C)Cc1cc([N+](=O)[O-])ccc1O.[Br-] [HNBS(CH3)2 --Br, dimethyl-(2-hydroxy-5-nitrobenzyl)sulfonium bromide]
inactivation by chemical modification (in words) [1]: partially inactivated
remaining activity at 1000 µM ([1]; 0.25 h): 84%
remaining activity at 10000 µM ([1]; 0.25 h): 71%

Compound: O=C(O)CI [IAA, iodoacetic acid]
remaining activity at 1000 µM ([1]; 0.25 h): 99%
remaining activity at 10000 µM ([1]; 0.25 h): 89%

Compound: NC(=O)CI [IAM, iodoacetamide]
effect on enzyme activity (in words) [1]: no effect; also recorded: partially inactivated
remaining activity at 1000 µM ([1]; 0.25 h): 97%
remaining activity at 10000 µM ([1]; 0.25 h): 85%

Compound: CC(C)(COP(=O)(O)OP(=O)(O)OC[C@H]1O[C@@H](n2cnc3c(N)ncnc32)[C@H](O)[C@@H]1OP(=O)(O)O)[C@@H](O)C(=O)NCCC(=O)NCCSC(=O)CC(=O)O [Malonyl-CoA]
remaining activity at 100 µM [3]: 93%
remaining activity at 1000 µM [3]: 83%
remaining activity at 5000 µM [3]: 52%
activity at 250 µM [5]: 1%

Compound: [Cl-].[Cl-].[Mg+2] [MgCl2]
Enzyme Activity (%) ([3]; addition 1 mM): 95%
Enzyme Activity (%) ([3]; addition 10 mM): 72%

Compound: O=S(=O)([O-])[O-].[Mg+2] [MgSO4]
Enzyme Activity (%) ([3]; addition 1 mM): 98%
Enzyme Activity (%) ([3]; addition 10 mM): 75%

Compound: [Cl][Mn][Cl] [MnCl2]
Enzyme Activity (%) ([3]; addition 1 mM): 84%
Enzyme Activity (%) ([3]; addition 10 mM): 64%

Compound: CCCCCCCCCCCCCC(=O)SCCNC(=O)CCNC(=O)[C@H](O)C(C)(C)COP(=O)(O)OP(=O)(O)OC[C@H]1O[C@@H](n2cnc3c(N)ncnc32)[C@H](O)[C@@H]1OP(=O)(O)O [Myristoyl-CoA]
remaining activity at 100 µM [3]: 93%
remaining activity at 1000 µM [3]: 83%
remaining activity at 5000 µM [3]: 52%
activity at 250 µM [5]: 3%

Compound: CC(=O)n1ccnc1 [N-acetylimidazole]
effect on enzyme activity (in words) [1]: caused inactivation
remaining activity at 1000 µM ([1]; 0.25 h): 101%
remaining activity at 10000 µM ([1]; 0.25 h): 67%

Compound: O=C1CCC(=O)N1Br [NBS, N-bromosuccinimide]
inactivation of the enzyme (in words) [1]: complete inactivation
remaining activity at 500 µM ([1]; 0.25 h): 30%
remaining activity at 5000 µM ([1]; 0.25 h): 2%
inhibition at 500 µM ([1]; 0.25 h, read-out: inactivation of the enzyme): 70%

Compound: CCN1C(=O)C=CC1=O [NEM, N-ethylmaleimide]
remaining activity at 1000 µM ([1]; 0.25 h): 94%
remaining activity at 10000 µM ([1]; 0.25 h): 52%

Compound: CCC(=O)SCCNC(=O)CCNC(=O)[C@H](O)C(C)(C)COP(=O)(O)OP(=O)(O)OC[C@H]1O[C@@H](n2cnc3c(N)ncnc32)[C@H](O)[C@@H]1OP(=O)(O)O [Propionyl-CoA]
remaining activity at 100 µM [3]: 92%
remaining activity at 1000 µM [3]: 89%
remaining activity at 5000 µM [3]: 72%
activity at 250 µM [5]: 9%

Compound: O=C1CCC(=O)O1 [Succinic anhydride]
effect on enzyme activity (in words) [1]: no effect; also recorded: partial inactivation
remaining activity at 1000 µM ([1]; 0.25 h): 95%
remaining activity at 10000 µM ([1]; 0.25 h): 79%

Compound: CC(C)(COP(=O)(O)OP(=O)(O)OC[C@H]1O[C@@H](n2cnc3c(N)ncnc32)[C@H](O)[C@@H]1OP(=O)(O)O)[C@@H](O)C(=O)NCCC(=O)NCCSC(=O)CCC(=O)O [Succinyl-CoA]
remaining activity at 100 µM [3]: 92%
remaining activity at 1000 µM [3]: 79%
remaining activity at 5000 µM [3]: 56%
activity at 250 µM [5]: 8%

Compound: O=S(=O)([O-])[O-].[Zn+2] [ZnSO4]
Enzyme Activity (%) ([3]; addition 1 mM): 88%
Enzyme Activity (%) ([3]; addition 10 mM): 25%

Compound: [Zn+2] [Zn^2+]
effect on yeast enzyme activity (in words) ([3]; concentration not given): most potent inhibitor

Compound: NO [hydroxylamine]
original enzyme activity recovered ([1]; depc-inactivated acetyl-coa hydrolase, 480 min, 250000 µM): ≈ 55%

Compound: O=C(O)c1cc[c]([Hg][Cl])cc1 [pCMB, p-chloromercuribenzoate]
Enzyme Activity (%) [1]: 102% and 88%

Compound: NC(=O)C1=CN([C@@H]2O[C@H](COP(=O)(O)OP(=O)(O)OC[C@H]3O[C@@H](n4cnc5c(N)ncnc54)[C@H](O)[C@@H]3O)[C@@H](O)[C@H]2O)C=CC1 [βNADH]
effect on enzyme activity (in words) [3]: appreciably decreased enzyme activity
effect on yeast enzyme activity (in words) [3]: inhibited
remaining activity at 100 µM [3]: 83%
remaining activity at 1000 µM [3]: 69%
remaining activity at 10000 µM [3]: 46%
effect on enzyme (in words) [4]: inhibited

Compound: NC(=O)C1=CN([C@@H]2O[C@H](COP(=O)(O)OP(=O)(O)OC[C@H]3O[C@@H](n4cnc5c(N)ncnc54)[C@H](OP(=O)(O)O)[C@@H]3O)[C@@H](O)[C@H]2O)C=CC1 [βNADPH]
remaining activity at 100 µM [3]: 99%
remaining activity at 1000 µM [3]: 98%
remaining activity at 10000 µM [3]: 96%

Compound: NC(=O)c1ccc[n+]([C@@H]2O[C@H](COP(=O)([O-])OP(=O)(O)OC[C@H]3O[C@@H](n4cnc5c(N)ncnc54)[C@H](O)[C@@H]3O)[C@@H](O)[C@H]2O)c1 [βNAD]
remaining activity at 100 µM [3]: 100%
remaining activity at 1000 µM [3]: 98%
remaining activity at 10000 µM [3]: 95%

transfer of [3H] acetyl group from [3H] acetyl-CoA to ACTH (1-24), units [6]: 63300 units
Compound: yeast N-alpha-acetyltransferase (enzyme)
